Reference: patent US20080306019A1, “Dopamine Receptor Agonists in the Treatment and Prevention of Hiv-Induced Dementia” (priority 2005, published 2008)
Entries after “also recorded” stand apart in the source; their conditions may differ.

What was measured:
human fetal neurons = conditions: human fetal neuronal cultures, Turchan et al. 2001; cited from earlier work
[1] = cited from earlier work
[2] = test system: ovariectomized female Sprague-Dawley rats; test: IV cocaine-induced locomotor activity after intra-accumbal Tat (1-72) (Example 14); format: in vivo, rat; conditions: for mean total activity (±SEM): IV cocaine 3.0 mg/kg; for mean TIC (time in center): across days; for TIC, acute (Day 1): acute IV cocaine
From the text: Animals: Sixty-four adult ovariectomized female, Sprague-Dawley rats (70 days old) were obtained from Harlan Laboratories, Inc. (Indianapolis, Ind.). All rats were surgically implanted with an Intracath IV catheter (22 ga, Becton/Dickinson General Medical Corp., Grand Prarie, Tex.), which was used as a SC, dorsally implanted port for chronic IV injections. The subcutaneous implantable access port for rats was developed and described by Mactutus et al. (1994). Ovariectomized rats were used because estrogen is protective against the neurotoxic effects of Tat (Wallace et al., 2006). Serial ovariectomy and indwelling jugular catheter surgeries occurred for all rats during the same procedure. Upon arrival at the animal care facilities, rats were placed in quarantine for 7 days, and then transferred to the colony. Animals were pair housed throughout the experiment and the catheters were flushed daily with 0.2 ml of heparinized (2.5%) saline. Rodent food (Pro-Lab Rat, Mouse Hamster Chow #3000) and water were provided ad lib. The colony was maintained at 21±2° C., 50%±10% relative humidity and a 12L: 12D cycle with lights on at 0700 h (EST).
Locomotor activity: Habituation: Rats in the vehicle-saline (VEH-SAL), Tat-saline (Tat-SAL), vehicle-cocaine (VEH-COC), and Tat-cocaine (TAT-COC) groups were habituated to the locomotor activity chambers for two 60-min sessions, one/day. Twenty four hours after the second habituation session, all rats were injected with IV saline and placed into the activity chambers for 30-min to measure baseline activity. The activity monitors were square (40×40 cm) open-field chambers (Hamilton-Kinder Inc., Poway, Calif.) that detected free movement of animals by infrared photocell interruptions. This equipment used an infrared photocell grid (32 emitter/detector pairs) to measure locomotor activity. The chambers were converted into round (˜40 cm diameter) compartments by adding clear Plexiglas inserts; photocell emitter/detector pairs were tuned by the manufacturer to handle the extra perspex width. Circular chambers increase the sensitivity to detect locomotor activity (Harrod et al., 2006). All activity monitors were located in an isolated room.
Intra-accumbal Tat microinjection: All rats received intra-accumbal Tat or vehicle (VEH; physiological saline) injections approximately 24 hours after the saline baseline activity session and then received subsequent IV injections of cocaine (3.0 mg/kg/injection) or saline according to a 2×2, protein×drug, design. […] Tat was therefore administered to the core region of the N Acc to determine if the sensitization process was disrupted. Rats were administered intra-accumbal Tat or VEH injections according to methods previously described (Bansal et al., 2000; Aksenov et al., 2003). Briefly, rats were anesthetized using a mixture of ketamine hydrochloride and xylazine by intraperatoneal (IP) injection (7.5 mg ketamine/100 gb.wt. […].). 15 μg/l of Tat was injected bilaterally, using a silanized Hamilton Syringe at the following coordinates: 1.8 mm anterior, ±1.6 mm lateral, and 7.0 mm ventral from bregma on the skull surface, over an interval of one minute, with a one minute tissue recovery period before withdrawal.
IV cocaine-induced locomotor activity: Twenty-four hours after rats received bilateral intra-accumbal injections, IV cocaine or saline was administered. The animals were immediately placed into locomotor activity chambers following cocaine or saline. The animals' locomotor activity response to cocaine was assessed for 30 minutes on only two occasions: immediately after the first (Day 1) and last (Day 14) cocaine injections; however, rats were administered daily IV cocaine or saline injections in the home cage on days 2-13. […]

rat hippocampal neurons [3] = test: Live/Dead (Calcein/Ethidium) viability of rat hippocampal neuronal cultures; conditions: hydrochloride
rat hippocampal neurons [4] = test: Intracellular ROS production (DCF fluorescence) in rat hippocampal neuronal cultures; format: cell-based
Procedure: Neuronal cultures were incubated with 10 μM H2DCFDA (Molecular Probes, Eugene, Oreg.) for 60 min at 37° C. in PBS.
No decrease in neuronal viability occur-red in cell cultures subjected to Tat alone or Tat+cocaine after 2 hours of treatment.

[5] = repeated daily dosing in rat (Robinson et al. 1994)

COC(=O)[C@H]1[C@@H](OC(=O)c2ccccc2)C[C@@H]2CC[C@H]1N2C.Cl [cocaine, Cocaine hydrochloride]
cocaine level not neurotoxic (prior work) (human fetal neurons): ≤ 16 µM | time to peak arterial plasma levels ([1]; 3.0 mg/kg/injection IV (Booze et al. 1997)): within one-minute | t1/2 in plasma ([1]; IV 3.0 mg/kg, rats (Booze et al., 1997)): 12 to 13 min | fetal brain levels of cocaine [1, 5]: 1750 ± 250 ng/mL | fetal plasma levels of cocaine [1, 5]: 500 ng/mL | total activity, repeated IV cocaine ([2]; 14 days): induced behavioral sensitization of total activity | mean total activity (±SEM) ([2]; 10 minute): 2363.0 (±120.0) | mean total activity (±SEM) ([2]; 20 minute): 1660.6 (±103.8) | mean total activity (±SEM) ([2]; 30 minute): 1494.01 (±66.5) | mean TIC (time in center) ([2]; 10 minute): 116.6 (±12.4) seconds | mean TIC (time in center) ([2]; 20 minute): 152.3 (±20.1) seconds | mean TIC (time in center) ([2]; 30 minute): 160.3 (±19.6) seconds | TIC, acute (Day 1) ([2]; 10 minute): 72.1 (±15.0) seconds | TIC, acute (Day 1) ([2]; 20 minute): 100.2 (±19.0) seconds | TIC, acute (Day 1) ([2]; 30 minute): 108.9 (±24.4) seconds | total activity, acute cocaine (Day 1) ([2]; rat, in vivo): did not increase total activity | locomotor composite incidence scores, VEH-COC vs VEH-SAL ([2]; repeated (day 14) cocaine): significantly higher locomotor composite incidence scores | neuronal cell death / Tat toxicity, Tat + cocaine vs Tat alone (rat hippocampal neurons [3]; 50 nM Tat + 1.5-1.6 μM cocaine, 48 hours): significantly higher in cultures subjected to both Tat and cocaine; also recorded: enhanced Tat toxicity | toxicity / cell viability, cocaine alone (rat hippocampal neurons [3]; cocaine alone (0.1-10 μM; 1.5 μM)): No toxicity; also recorded: did not change cell viability | intracellular ROS production, cocaine + Tat vs Tat alone (rat hippocampal neurons [4]; 1.6 μM cocaine + 50 nM Tat, 2 hours): increased intracellular ROS production relative to cultures treated with 50 nM Tat alone | difference in DCF fluorescence, Tat+cocaine vs Tat (rat hippocampal neurons [4]; 48 hours of treatment): not significant | DCF fluorescence, cocaine alone (rat hippocampal neurons [4]; cocaine alone): did not cause changes in DCF fluorescence
